The record followed here is patent US20110218343A1, “SMALL MOLECULE INHIBITORS OF ROTAMASE ENZYME ACTIVITY” (GLIAMED, INC., priority 1995, published 2011).

The structures appear in SMILES notation. pKi: −log10 of the molar value.

Usually pKi stands for −log10 of the Ki, conventionally taken in molar units.

Chain of FKBP (P62942 whole entry): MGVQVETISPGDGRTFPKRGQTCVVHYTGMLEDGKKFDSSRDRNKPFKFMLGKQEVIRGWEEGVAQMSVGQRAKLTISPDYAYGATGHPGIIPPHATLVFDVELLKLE

The first test concerns the target FKBP (Homo sapiens, UniProt P62942). Nature of the test: FKBP rotamase (peptidyl-prolyl isomerase) inhibition, chymotrypsin-coupled assay. The format is biochemical. The settings on record: apparent Ki; cis-trans isomerization of model substrate N-succinyl-Ala-Ala-Pro-Phe-p-nitroanilide, absorbance at 390 nm.
Take `CCOC(=O)[C@H](Cc1ccccc1)NC(=O)[C@@H]1CCCN1C(=O)C(=O)C(C)(C)CC` [Example 24, 1-[1-(3,3-dimethyl-1,2-dioxopentyl)-L-proline]-L-phenylalanine ethyl ester]: the pKi was 5.05.

The test system of the next test is chick dorsal root ganglia (DRG) explants. The test is described as follows: Neurite outgrowth in chick dorsal root ganglion cultures. Type of test: cell-based. The settings on record: whole ganglion explants from ten day chick embryos; neurites counted 48 hours after drug treatment. As for the experimental part: Dorsal root ganglia were dissected from chick embryos of ten day gestation. Whole ganglion explants were cultured on thin layer Matrigel-coated 12 well plates with Liebovitz L15 plus high glucose media supplemented with 2 mM glutamine and 10% fetal calf serum, and also containing 10 μM cytosine .β-D arabinofuranoside (Ara C) at 37° C. in an environment containing 5% CO2. Twenty-four hours later, the DRGs were treated with various concentrations of nerve growth factor, immunophilin ligands or combinations of NFG plus drugs. Forty-eight hours after drug treatment, the ganglia were visualized under phase contrast or Hoffman Modulation contrast with a Zeiss Axiovert inverted microscope. Photomicrographs of the explants were made, and neurite outgrowth was quantitated. Neurites longer than the DRG diameter were counted as positive, with total number of neurites quantitated per each experimental condition. Three to four DRGs are cultured per well, and each treatment was performed in duplicate.
Take `CCC(C)(C)C(=O)C(=O)N1CCC[C@H]1C(=O)OCCCc1cc(OC)c(OC)c(OC)c1` [Example 6, 3-(3,4,5-Trimethoxyphenyl)-1-propyl(2S)-1-(3,3-dimethyl-1,2-dioxopentyl)-2-pyrrolidinecarboxylate]: the “ED50 (Neurite Outgrowth in Chick DRG)” value was 149 nM.

`CCC(C)(C)C(=O)C(=O)N1CCC[C@H]1C(=O)OC/C=C/c1ccc2c(c1)OCO2` [Example 9, 3-(4,5-Methylenedioxyphenyl)-1-prop-2-(E)-enyl(2S)-1-(3,3-dimethyl-1,2-dioxopentyl)-2-pyrrolidinecarboxylate]: the “ED50 (Neurite Outgrowth in Chick DRG)” value is listed as 75 nM.

As to `CCC(C)(C)C(=O)C(=O)N1CCC[C@H]1C(=O)OC/C=C/c1ccc(Cl)c(Cl)c1` [Example 8, 3-(4,5-Dichlorophenyl)-1-prop-2-(E)-enyl(2S) -1-(3,3-dimethyl-1,2-dioxopentyl)-2-pyrrolidinecarboxylate], the “ED50 (Neurite Outgrowth in Chick DRG)” value was 850 nM.

`CCC(C)(C)C(=O)C(=O)N1CCC[C@H]1C(=O)OC/C=C/c1cc(OC)c(OC)c(OC)c1` [Example 7, 3-(3,4,5-Trimethoxyphenyl)-1-prop-2-(E)-enyl(2S)-1-(3,3-dimethyl-1,2-dioxopentyl)-2-pyrrolidinecarboxylate]: the “ED50 (Neurite Outgrowth in Chick DRG)” value amounted to 190 nM.

For `CCC(C)(C)C(=O)C(=O)N1CCC[C@H]1C(=O)OCCCc1ccccc1` [Example 4, 3-phenyl-1-propyl(2S)-1-(3,3-dimethyl-1,2-dioxopentyl)-2-pyrrolidinecarboxylate], the “ED50 (Neurite Outgrowth in Chick DRG)” value came out at 53 nM.
